Assay results as given in patent US20240270724A1, “GALECTIN-3 INHIBITING C-GLYCOSIDES” (GLYCOMIMETICS, INC., priority 2021, published 2024).

Key:
galectin-3 = biological target: T1, galectin-3 (Homo sapiens, UniProt P17931); assay: Galectin-3 activity ELISA assay: inhibition of galectin-3 binding to immobilized Galβ1-3GlcNAc polymer; conditions: inhibition of galectin-3 binding to Galβ1-3GlcNAc polymer, average (± standard deviation) where assayed more than once
T1 construct: purchased IBL IBATGP0414
T1 sequence (P17931 whole entry): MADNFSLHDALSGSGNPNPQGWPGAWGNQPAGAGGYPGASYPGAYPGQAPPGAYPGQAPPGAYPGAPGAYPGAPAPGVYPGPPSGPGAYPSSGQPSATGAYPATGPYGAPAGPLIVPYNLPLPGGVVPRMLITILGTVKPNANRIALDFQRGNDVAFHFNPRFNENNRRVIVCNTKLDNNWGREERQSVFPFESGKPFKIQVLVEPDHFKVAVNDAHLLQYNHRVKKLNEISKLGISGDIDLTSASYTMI
Text: An inhibition assay may be used to screen for antagonists of galectin-3. For example, an assay may be performed to characterize the capability of a compound described herein to inhibit interaction of galectin-3 with a Galβ1-3GlcNAc carbohydrate structure. The inhibition assay may be a competitive binding assay, which allows the determination of IC50 values. By way of example, a Galβ1-3GlcNAc polymer may be immobilized onto a matrix; a composition may be added to reduce nonspecific binding; the immobilized Galβ1-3GlcNAc polymer may be contacted with the candidate compound in the presence of galectin-3 group under conditions and for a time sufficient to permit galectin-3 to bind to the immobilized Galβ1-3GlcNAc polymer; the immobilized Galβ1-3GlcNAc polymer may be washed; and the amount of galectin-3 bound to the immobilized Galβ1-3GlcNAc polymer may be detected. Variations of such steps can be readily and routinely accomplished by a person of ordinary skill in the art.
Galectin-3 antagonists were evaluated for their ability to inhibit binding of galectin-3 to a Galβ1-3GlcNAc carbohydrate structure. The detailed protocol was as follows. A 1 μg/mL suspension of a Galβ1-3GlcNAcβ1-3Galβ1-4GlcNAcβ-PAA-biotin polymer (Glycotech, catalog number 01-096) was prepared. A 100 μL aliquot of the polymer was added to the wells of a 96-well streptavidin-coated plate (R&D Systems, catalog number CP004). A 100 μL aliquot of 1× Tris Buffered Saline (TBS, Sigma, catalog number T5912-10X) was added to control wells. The polymer was allowed to bind to the streptavidin-coated wells for 1.5 hours at room temperature. The contents of the wells were discarded, and 200 μL of 1×TBS containing 1% bovine serum albumin (BSA) was added to each well as a blocking reagent and the plate was kept at room temperature for 30 minutes. The wells were washed three times with 1×TBS containing 0.1% BSA. A serial dilution of test compounds was prepared in a separate V-bottom plate (Corning, catalog number 3897). A 75 μL aliquot of the highest concentration of the compound to be tested was added to the first well in a column of the V-bottom plate, then 15 μL were serially transferred into 60 μL 1×TBS through the remaining wells in the column to generate a 1 to 5 serial dilution. A 60 μL aliquot of 2 μg/mL galectin-3 (IBL, catalog number IBATGP0414) was added to each well in the V-bottom plate. A 100 μL aliquot of the galectin-3 test compound mixture was transferred from the V-bottom plate into the assay plate containing the Galβ1-3GlcNAc polymer. Four sets of control wells in the assay plate were prepared in duplicate containing 1) both Galβ1-3GlcNAc polymer and galectin-3, 2) neither the polymer nor galectin-3, 3) galectin-3 only, no polymer, or 4) polymer only, no galectin-3. The plate was gently rocked for 1.5 hours at room temperature. The wells were washed four times with TBS/0.1% BSA. A 100 μL aliquot of anti-galectin-3 antibody conjugated to horse radish peroxidase (R&D Systems, from DGAL30 kit) was added to each well, and the plate was kept at room temperature for 1 hour. The wells were washed four times with TBS/0.1% BSA. A 100 μL aliquot of TMB substrate solution was added to each well. The TMB substrate solution was prepared by making a 1:1 mixture of TMB Peroxidase Substrate (KPL, catalog number 5120-0048) and Peroxidase Substrate Solution B (KPL, catalog number 5120-0037). The plate was kept at room temperature for 10 to 20 minutes. The color development was stopped by adding 100 uL 10% phosphoric acid (RICCA Chemical Co., catalog number 5850-16). The absorbance at 450 nm (A450) was measured using a FlexStation 3 plate reader (Molecular Devices). Plots of A450 versus test compound concentration and IC50 determinations were made using GraphPad Prism 6. The number of assays run (n) for each compound is recorded in the following table.

[1] = biological target: T2, carbohydrate recognition domain of human galectin-3 (Galectin-3-CRD) (Homo sapiens, UniProt P17931); assay: Galectin-3 activity microscale thermophoresis assay; format: binding; conditions: label-free MST, 20 nM galectin-3-CRD; average of all assays (± standard deviation), each assay in triplicate
T2 construct: The carbohydrate recognition domain of human galectin-3 (Servesto Galectin-3-CRD) was diluted; purchased Servesto
T2 sequence (P17931 118-248 limits assumed): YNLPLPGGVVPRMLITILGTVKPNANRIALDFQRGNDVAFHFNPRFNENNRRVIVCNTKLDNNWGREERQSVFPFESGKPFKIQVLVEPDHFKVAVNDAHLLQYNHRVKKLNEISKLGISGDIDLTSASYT
Procedure: The carbohydrate recognition domain of human galectin-3 (Servesto Galectin-3-CRD) was diluted with PBS+0.1% F127 to 40 nM. Separately, a 40 uM stock of Compound 45 in DMSO was diluted down to 4 uM in PBS+0.1% F127 and serially diluted in sixteen steps using a dilution factor of 1 to 2 in 10% DMSO+PBS+0.1% F127. To each sample in the serial dilution of Compound 45, 10 ul of 40 nM Galectin-3-CRD was added, yielding final concentrations of 20 nM galectin-3-CRD and 5% DMSO+PBS+0.1% F127. NT.LabelFree Zero background Standard Treated Capillaries were filled with the prepared solutions then loaded into the Monolith NT Label-Free MST instrument. The reaction was measured with 100% excitation power of LED and medium (40%) MST power. Binding curves and Kd values were generated using MO affinity analysis. Each assay was run in triplicate. Some compounds were subjected to more than one assay run in triplicate.

| IC50 (galectin-3) | Kd [1] | Structure (SMILES) |
| --- | --- | --- |
| 448 nM | 23 nM | CNC(=O)[C@@H](OCc1ccc(Br)cc1)[C@@H]1OC(CO)[C@H](O)C(n2cc(-c3cc(F)c(F)c(F)c3)nn2)C1OC (stereo partly drawn) [Compound 19] |
| 265 nM | 36 nM | COCCCNC(=O)[C@@H](OCc1ccc(Br)cc1)[C@@H]1OC(CO)[C@H](O)C(n2cc(-c3cc(F)c(F)c(F)c3)nn2)C1OC (stereo partly drawn) [Compound 20] |
| 474 nM | 33 nM | COCCCNC(=O)[C@@H](OCc1ccc(Br)cc1)[C@@H]1OC(CO)[C@H](O)C(n2cc(-c3cc(F)cc(F)c3)nn2)C1OC (stereo partly drawn) [Compound 21] |
| 1490 nM | 83 nM | COCCCN(C)C(=O)[C@@H](OCc1ccc(Br)cc1)[C@@H]1OC(CO)[C@H](O)C(n2cc(-c3cc(F)cc(F)c3)nn2)C1OC (stereo partly drawn) [Compound 22] |
| 271 nM | 1.7 nM | COC1C(n2cc(-c3cc(F)c(F)c(F)c3)nn2)[C@@H](O)C(CO)O[C@H]1[C@H](OCc1ccc(Br)cc1)C(=O)NC(C)C (stereo partly drawn) [Compound 23] |
| 173 nM | 26 nM | CC(C)OC(=O)[C@@H](OCc1ccc(Br)cc1)[C@@H]1OC(CO)[C@H](O)C(n2cc(-c3cc(F)c(F)c(F)c3)nn2)C1O (stereo partly drawn) [Compound 27] |
| 391 nM | 21 nM | COCCCNC(=O)[C@@H](OCc1ccc(Br)cc1)[C@@H]1OC(CO)[C@H](O)C(n2cc(-c3cc(F)cc(F)c3)nn2)C1O (stereo partly drawn) [Compound 35] |
| 204 nM | 14 nM | COCCCNC(=O)[C@@H](OCc1ccc(Br)cc1)[C@@H]1OC(CO)[C@H](O)C(n2cc(-c3cc(F)c(F)c(F)c3)nn2)C1O (stereo partly drawn) [Compound 36] |
| 103 nM | 12 nM | COC1C(n2cc(-c3cc(F)c(F)c(F)c3)nn2)[C@@H](O)C(CO)O[C@H]1[C@H](OCc1ccc(Br)cc1)C(=O)OC(C)C (stereo partly drawn) [Compound 43] |
| 291 nM | 12 nM | CC(C)NC(=O)[C@@H](OCc1ccc(Br)cc1)[C@@H]1OC(CO)[C@H](O)C(n2cc(-c3cc(F)c(F)c(F)c3)nn2)C1O (stereo partly drawn) [Compound 44] |
| 171 nM | 8.9 nM | [2H]C([2H])([2H])OC1C(n2cc(-c3cc(F)c(F)c(F)c3)nn2)[C@@H](O)C(CO)O[C@H]1[C@H](OCc1ccc(Br)cc1)C(=O)NC(C)C (stereo partly drawn) [Compound 45] |
| 228 nM | 2.9 nM | [2H]C([2H])([2H])OC1C(n2cc(-c3cc(F)c(F)c(F)c3)nn2)[C@@H](O)C(CO)O[C@H]1[C@H](OCc1ccc(Br)cc1)C(=O)NC([2H])(C([2H])([2H])[2H])C([2H])([2H])[2H] (stereo partly drawn) [Compound 46] |
| 408 nM | 11 nM | [2H]C([2H])([2H])OC1C(n2cc(-c3cc(F)c(F)c(F)c3)nn2)[C@@H](O)C(CO)O[C@H]1[C@H](OCc1ccc(Br)cc1)C(=O)NC1CC1 (stereo partly drawn) [Compound 47] |
| 972 nM | 46 nM | [2H]C([2H])([2H])OC1C(n2cc(-c3cc(F)c(F)c(F)c3)nn2)[C@@H](O)C(CO)O[C@H]1[C@H](OCc1ccc(Br)cc1)C(=O)NC(C)(C)C (stereo partly drawn) [Compound 48] |
| 116 nM | 18 nM | COC1C(n2cc(-c3cc(F)c(F)c(F)c3)nn2)[C@@H](O)C(CO)O[C@H]1[C@H](OCc1ccc(Br)cc1)C(=O)NC1CC1 (stereo partly drawn) [Compound 49] |
| 201 nM | 10 nM | [2H]C([2H])([2H])OC1C(n2cc(-c3cc(F)c(F)c(F)c3)nn2)[C@@H](O)C(CO)O[C@H]1[C@H](OCc1ccc(Br)cc1)C(=O)NC1(C)CC1 (stereo partly drawn) [Compound 50] |
| 702 nM | 17 nM | [2H]C([2H])([2H])OC1C(n2cc(-c3cc(F)c(F)c(F)c3)nn2)[C@@H](O)C(CO)O[C@H]1[C@H](OCc1ccc(Br)cc1)C(=O)NC1(C(F)(F)F)CC1 (stereo partly drawn) [Compound 51] |
| 771 nM | 10 nM | [2H]C([2H])([2H])OC1C(n2cc(-c3cc(F)c(F)c(F)c3)nn2)[C@@H](O)C(CO)O[C@H]1[C@H](OCc1ccc(Br)c(F)c1)C(=O)NC(C)C (stereo partly drawn) [Compound 61] |
| 826 nM | 11 nM | [2H]C([2H])([2H])OC1C(n2cc(-c3cc(F)c(F)c(F)c3)nn2)[C@@H](O)C(CO)O[C@H]1[C@H](OCc1ccc(Br)cc1)C(=O)NC1CC1(F)F (stereo partly drawn) [Compound 62] |
| 51 nM | 22 nM | [2H]C([2H])([2H])OC1C(n2cc(-c3cc(F)c(F)c(F)c3)nn2)[C@@H](O)C(CO)O[C@H]1[C@H](OCc1ccc(Br)cc1)C(=O)NC1CNC1 (stereo partly drawn) [Compound 63] |
| 236 nM | 18 nM | [2H]C([2H])([2H])OC1C(n2cc(-c3cc(F)c(F)c(F)c3)nn2)[C@@H](O)C(CO)O[C@H]1[C@H](OCc1ccc(Br)cc1)C(=O)NC1COC1 (stereo partly drawn) [Compound 64] |
| 364 nM | 13 nM | [2H]C([2H])([2H])OC1C(n2cc(-c3cc(F)c(F)c(F)c3)nn2)[C@@H](O)C(CO)O[C@H]1[C@H](OCc1ccc(Br)cc1)C(=O)N[C@H]1C[C@H]1F (stereo partly drawn) [Compound 65] |
| 143 nM | 3.6 nM | [2H]C([2H])([2H])OC1C(n2cc(-c3cc(F)c(F)c(F)c3)nn2)[C@@H](O)C(CO)O[C@H]1[C@H](OCc1ccc(Br)cc1)C(=O)NC1CC(F)(F)C1 (stereo partly drawn) [Compound 66] |
| 153 nM | 2.2 nM | [2H]C([2H])([2H])OC1C(n2cc(-c3cc(F)c(F)c(F)c3)nn2)[C@@H](O)C(CO)O[C@H]1[C@H](OCc1ccc(Br)cc1)C(=O)NC1CCC1 (stereo partly drawn) [Compound 67] |
| 709 nM | 87 nM | [2H]C([2H])([2H])OC1C(n2cc(-c3cc(F)c(F)c(F)c3)nn2)[C@@H](O)C(CO)O[C@H]1[C@H](OCc1ccc(Br)cc1)C(=O)N(C)C (stereo partly drawn) [Compound 68] |
| 269 nM | 32 nM | CCNC(=O)[C@@H](OCc1ccc(Br)cc1)[C@@H]1OC(CO)[C@H](O)C(n2cc(-c3cc(F)c(F)c(F)c3)nn2)C1OC (stereo partly drawn) [Compound 69] |
| 192 nM | 20 nM | COC1C(n2cc(-c3cc(F)c(F)c(F)c3)nn2)[C@@H](O)C(CO)O[C@H]1[C@H](OCc1ccc(Br)cc1)C(=O)NCCO (stereo partly drawn) [Compound 70] |
| 526 nM | 9 nM | COC1C(n2cc(-c3cc(F)c(F)c(F)c3)nn2)[C@@H](O)C(CO)O[C@H]1[C@H](OCc1ccc(Br)cc1)C(=O)N[C@@H](C)CF (stereo partly drawn) [Compound 71] |
| 197 nM | 9 nM | COC1C(n2cc(-c3cc(F)c(F)c(F)c3)nn2)[C@@H](O)C(CO)O[C@H]1[C@H](OCc1ccc(Br)cc1)C(=O)NC(CF)CF (stereo partly drawn) [Compound 72] |
| 182 nM | 8 nM | COC1C(n2cc(-c3cc(F)c(F)c(F)c3)nn2)[C@@H](O)C(CO)O[C@H]1[C@H](OCc1ccc(Br)cc1)C(=O)N[C@@H](C)C(F)(F)F (stereo partly drawn) [Compound 73] |
